Test results: patent US7632794B1, “Lens care solutions comprising alkyldimonium hydroxypropyl alkylglucosides” (Bausch & Lomb Incorporated, priority 2008, dated 2009)

System: five microorganisms tested (three bacterium and two fungal strains)
Experiment: Biocidal efficacy across the microorganisms tested
Format: cell-based
Conditions: aqueous buffered borate solution
Excerpt: Accordingly, a composition containing as little as 75 ppm of S-1218 and 50 ppm of L-1010P is shown to have very strong biocidal activity against all five microorganisms.

Substance | biocidal efficacy (in words)
stearyl dimoniumhydropropyl decylglucoside | relatively high increase in biocidal efficacy
stearyl dimoniumhydropropyl laurylglucoside | relatively high increase in biocidal efficacy
